# Test results published in the METLIN SMRT retention time set (Domingo-Almenara et al. 2019).
# Test: gradient 5% acetonitrile 3 min, to 50% in 2 min, to 85% in 15 min, held 3 min, 100 µL/min
# Details: column: Zorbax Extend-C18 2.1 x 50 mm; eluents: water / acetonitrile, 0.1% formic acid
# Procedure, shortened: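 Mixtures of ~100 pure standards were chromatographed on a Zorbax Extend-C18 column (2.1 × 50 mm, 1.8 μm) at 100 μL/min using water and acetonitrile, each with 0.1% formic acid. Detection used a quadrupole time-of-flight mass spectrometer in positive and negative ionization mode, and data collection spanned 3 months. Retention time was obtained from adduct peaks picked computationally and each checked manually.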
row,RP-LC retention time,SMILES
1,1310 s,Cc1ccc(-c2csc(-n3nc(C)c(CC(=O)Nc4ccc(C)c(C)c4)c3C)n2)cc1
2,661 s,CCn1c(CCNC(=O)c2cc(Cl)ccc2F)nc2cccnc21
3,856 s,CCCn1ccc2sc(C)c(C(=O)NCc3cccc(OC)c3)c2c1=O
4,711 s,CCOCC(=O)N1CCCN(C2=NS(=O)(=O)C(c3ccc(F)cc3)=C2C)CC1
5,1040 s,Cc1ccc(Cl)cc1NC(=O)N1CCCC(C)(C(=O)NCc2ccccc2)C1 (stereo not given)
6,904 s,COc1cccc(NC(=O)Cn2nc3c(Oc4cc(C)cc(C)c4)nccn3c2=O)c1
7,1020 s,CC1CCC(NC(=O)c2nnc(-c3ccc(S(=O)(=O)N4CCCC4)cc3)o2)CC1 (stereo not given)
8,617 s,CCCN1CCN(c2ncc(C(=O)Nc3ccc(OCC)cc3)c(N)n2)CC1
9,610 s,COc1cccc(N2CCN(Cc3nc4nc(C)cc(N(C)C)n4n3)CC2)c1
10,864 s,COc1ccc(-c2nnc3sc(-c4cc(C)on4)nn23)cc1
11,705 s,Cc1cccc(CC(=O)Nc2c(C(=O)N3CCN(c4ccccn4)CC3)oc3ccccc23)c1
12,732 s,Cc1ccc(CNC(=O)C2CCN(S(=O)(=O)c3cn(C)cn3)CC2)cc1
13,811 s,Cc1cc(C)cc(Nc2nc(C)cc(=O)n2CC(=O)Nc2cccc(C#N)c2)c1
14,1050 s,Cc1ccc(-c2ncc(C(=O)NCCC3=CCCCC3)c(-c3ccncc3)n2)cc1
15,704 s,COCCNC(=O)N1c2ccccc2NC2=C(C(=O)CC(C)(C)C2)C1c1ccc(OC)cc1 (stereo not given)
16,621 s,CCC(C)NC(=O)N1CCN(Cc2nc3cccnc3n2-c2ccc(OC)cc2)CC1 (stereo not given)

row,RP-LC retention time,SMILES
1,1090 s,Cc1ccc(Oc2nccnc2SCC(=O)NCCC2=CCCCC2)cc1
2,857 s,CS(=O)(=O)Nc1ccc(C2(C(=O)NCc3ccc4c(c3)OCO4)CCCCC2)cc1
3,750 s,COc1ccc(C2(C(=O)N3CCCOCCNC(=O)[C@@H]4CCCC[C@@H]43)CC2)cc1
4,864 s,O=C(Cn1cnc2nc3c(cc2c1=O)CCCC3)NCCCN1CCc2ccccc2C1
5,637 s,CCOc1ccc(NC(=O)CN2CCc3c(c(=O)c4cc(C)ccc4n3C)C2)cc1
6,708 s,Cc1ccc(NC(=O)Cn2nc3n(c2=O)CCCCC3)cc1
7,769 s,CCOc1cc(=O)n2c(c1C(=O)Nc1ccc(Cl)cc1)CCCC2
8,791 s,COc1cccc(N2CCN(C(=O)CCc3nnc4c5cc(-c6ccccc6)nn5ccn34)CC2)c1
9,662 s,COCCNC(=O)CSc1cc(N2CCN(c3ccc(OC)cc3)CC2)ncn1
10,818 s,COc1ccc(CNC(=O)Cn2c(C)cc(-c3nnc(C4CCC4)o3)c2C)cc1
11,807 s,COc1ccc(OC)c(NC(=O)C(=O)NCC2CCCO2)c1 (stereo not given)
12,946 s,CCn1cc(-c2nc(C)c(C(=O)NCc3ccccn3)s2)c2cccnc21
13,853 s,CCCS(=O)(=O)c1nc2ccc(NS(=O)(=O)c3ccc(OC)c(OC)c3)cc2s1
14,887 s,CCc1ccc(NC(=O)Cc2c(C)n(C)c3nc(-c4ccccc4)nn3c2=O)cc1
15,756 s,Cc1noc2nc(C)n(CC(=O)NC(C)c3ccccc3)c(=O)c12 (stereo not given)

# The remaining lines, values behind:
row,SMILES,RP-LC retention time
1,O=C(NCCN1CCCC1)c1nc2ccccn2c1-c1ccc(F)cc1,611 s
2,Cc1noc(C)c1CC(=O)N(C)C1CCc2nn(CC3CC3)c(=O)n2CC1 (stereo not given),630 s
3,Cc1nc(CNC(=O)C2CCN(C(=O)Nc3ccc(Br)cc3F)CC2)cs1,699 s
4,COc1cc2c(cc1OC)C(C(=O)N1CCC(C(N)=O)CC1)C(c1cccs1)N(C)C2=O (stereo not given),596 s
5,O=c1n(Cc2ccc(F)cc2)nc2c(S(=O)(=O)N3CCN(c4ccc(F)cc4)CC3)cccn12,991 s
6,N#Cc1ccc(C(=O)NC2CCN(c3ccc(F)cc3)C2=O)cc1 (stereo not given),754 s
7,Cc1cccc(NC(=O)C2CCN(S(=O)(=O)c3c(C)[nH]c(C)c3C(=O)N3CCCCC3)CC2)n1,642 s
8,O=C(c1ccc(OCC2CCCN2C(=O)CC2CCCCC2)cc1)N1CCOCC1 (stereo not given),829 s
9,Cc1ccc(Nc2ncccc2S(N)(=O)=O)cc1F,863 s
10,Cc1ccc(Cn2nc3c(S(=O)(=O)N4CCOCC4)cccn3c2=O)cc1,774 s
11,Cc1cc(SCC(=O)N2CCN(c3ccccc3)CC2)nc(-c2ccc(F)cc2)n1,1160 s
12,CC(=O)N1CCc2cc(-c3ccc(C(=O)NCCCN4CCCCC4C)cc3)ccc21 (stereo not given),616 s
13,Cn1c(=O)c2cc(C(=O)N3CCN(c4ccccn4)CC3)sc2n(C)c1=O,578 s
14,COc1cccc(C(O)CN2CCN(c3ccccn3)CC2)c1 (stereo not given),554 s
15,Cc1c(Cc2ccc3c(c2)OCO3)sc(NC(=O)c2ccc([N+](=O)[O-])s2)c1C#N,1070 s
16,Cc1cc(C)c2c(n1)SCC(=O)N2CCCC(=O)NCCCN1CC(C)CC(C)C1 (stereo not given),595 s
17,Cc1ccc(F)c(NS(=O)(=O)c2cc(-c3nc(C(C)(C)C)cs3)cs2)c1,1260 s
18,Cc1ccc(CN2CCN(C3CCN(S(=O)(=O)c4cccc(C)c4)CC3)C(=O)C2=O)cc1,873 s
19,CC(=O)Nc1ccc(NC(=O)C2CCN(S(=O)(=O)c3ccc4c(c3)CCCC(=O)N4)CC2)cc1,644 s
20,Cc1ccccc1NC(=O)c1ccc(=O)n(CCN2CCCC2)c1,584 s

row,SMILES,RP-LC retention time
1,COc1ccc2sc(N(CCN(C)C)C(=O)Cc3ccccc3)nc2c1,601 s
2,CCC(C)(C)C(=O)N1CCCC(c2nc(CCNC(=O)C3CC3)cs2)C1 (stereo not given),767 s
3,CN(C)c1ccc2c(c1)CN(C(=O)C1CC1)CCO2,574 s
4,CCCn1cc(CCNC(=O)c2ccc(Br)cc2)c2cccnc21,832 s
5,CC1CN(C(=O)CSc2nc(-c3ccco3)cc(C(F)(F)F)n2)CC(C)O1 (stereo not given),952 s
6,O=c1c2sccc2n(Cc2nc(-c3cccc(C(F)(F)F)c3)no2)c(=O)n1-c1ccccc1F,1090 s
7,Cc1ccc(C)c(-c2csc(Nc3ccc(S(=O)(=O)Nc4nc(C)cc(C)n4)cc3)n2)c1,1030 s
8,O=C(Nc1nc2c(s1)CN(C(=O)c1cnn(-c3ccccc3)n1)CC2)C1CCCO1 (stereo not given),762 s
9,Cc1cc2n(n1)CCC(=O)N2CCCC(=O)NCc1cccs1,637 s
10,Fc1ccccc1-c1nn2c(CSc3ccccc3)nnc2s1,981 s
11,CN1C(=O)NC2(CCN(S(=O)(=O)c3cccs3)CC2)C1=O,640 s
12,NC(=O)c1[nH]c2ccc(F)cc2c1N1CCCC1=O,637 s
13,Cc1ccsc1C(=O)Nc1cccn2cnnc12,666 s
14,CC(=O)Oc1cc(C(C)C)c(OCCN(C)C)cc1C,708 s
15,COC(=O)C(N)Cc1ccc(Cl)cc1 (stereo not given),653 s
16,COc1cccc2c(SCc3ccccn3)nccc12,683 s
17,CCN(Cc1ccncc1)C1CN(C(=O)c2ccc3ncccc3c2)C1,560 s
18,N#Cc1ccc(NC(=O)Cc2cn3cc(F)ccc3n2)cc1,601 s
19,Cc1[nH]c(C(=O)Nc2ccc(F)cc2)c(C)c1S(=O)(=O)N1CCCC1,845 s
20,CCN(CC)S(=O)(=O)c1ccc2c(c1)N(CC(=O)N(C)Cc1ccccc1)C(=O)C1CCCCN21 (stereo not given),895 s

row,SMILES,RP-LC retention time
1,Cc1cccn2cc(-c3cccc(S(=O)(=O)N4CCCCCC4)c3)nc12,692 s
2,O=C(Cc1ccccc1)N1CCN(c2cc(-c3ccccc3)[nH]n2)CC1,774 s
3,O=C(Cn1cccc1-c1nnc(-c2ccccc2)o1)N1CCN(c2ccc(F)cc2)CC1,996 s
4,CCCN1C(=O)c2cc(S(=O)(=O)NCC(C)C)ccc2Oc2cccnc21,1050 s
5,CC1=C(C(=O)N(CC(=O)NC2CCC(C)CC2)c2ccc(Cl)cc2)SCCO1 (stereo not given),1040 s
6,Cc1cc(C)cc(NC(=O)C2CCN(c3cncnc3N3CCOCC3)CC2)c1,657 s
7,Cc1sc(C)c(S(=O)(=O)Nc2ccccc2F)c1-c1cc(C(F)(F)F)on1,1130 s
8,CCCNC(=O)C1CCCN(C(=O)c2[nH]c(C)c(C(=O)OC)c2C)C1 (stereo not given),668 s
9,CCCS(=O)(=O)N1CCC(OCCOCc2ccccc2)CC1,937 s
10,CCCCn1nc2c(S(=O)(=O)N3CCOCC3)cccn2c1=O,702 s
11,CCn1nc(C)c(CCNC(=O)C(C)n2c3ccccc3c3cnn(C)c(=O)c32)c1C (stereo not given),656 s
12,CNCc1cc(-c2ccccc2F)n(S(=O)(=O)c2cccnc2)c1,682 s
13,COc1ccc(OC)c(S(=O)(=O)N2CCC([C@H]3[C@@H](OC)C(=O)N3C(C)C)CC2)c1,809 s
14,Cn1c(=O)c2nc(S(=O)(=O)CCC(=O)Nc3ccc(Br)cc3)n(C)c2n(C)c1=O,779 s
15,O=C(C1CCCCC1)N1CCC(F)(C(=O)NC2CC2)CC1,637 s
16,O=S(=O)(NCCN1CCOCC1)c1cc(-c2noc(C3CCCC3)n2)cs1,678 s
17,O=C(NC1CCCCCC1)C1CCN(c2cncnc2N2CCOCC2)CC1,635 s
18,O=S(=O)(NCC1(c2ccc(F)cc2)CC1)c1ccc2c(c1)OCCO2,918 s
19,Fc1cccc(CN2CCC(N3CC4(CCCCC4)C3c3ccncc3)CC2)c1 (stereo not given),560 s
